Source: patent US20110195929A1, “COMPOUNDS FOR THE TREATMENT OF FLAVIVIRAL INFECTIONS” (SUMMIT CORPORATION PLC, priority 2008, published 2011)

How the values were obtained:
[1] = molecular target: T1, α-D-mannosidase (Canavalia ensiformis, UniProt C0HJB3); assay: Glycosidase inhibition: α-D-mannosidase; format: biochemical, Jack beans (Canavalia ensiformis); conditions: 1 mg/ml; pH 4.5, 20° C
T1 construct: purchased Sigma
T1 sequence (C0HJB3 1-981): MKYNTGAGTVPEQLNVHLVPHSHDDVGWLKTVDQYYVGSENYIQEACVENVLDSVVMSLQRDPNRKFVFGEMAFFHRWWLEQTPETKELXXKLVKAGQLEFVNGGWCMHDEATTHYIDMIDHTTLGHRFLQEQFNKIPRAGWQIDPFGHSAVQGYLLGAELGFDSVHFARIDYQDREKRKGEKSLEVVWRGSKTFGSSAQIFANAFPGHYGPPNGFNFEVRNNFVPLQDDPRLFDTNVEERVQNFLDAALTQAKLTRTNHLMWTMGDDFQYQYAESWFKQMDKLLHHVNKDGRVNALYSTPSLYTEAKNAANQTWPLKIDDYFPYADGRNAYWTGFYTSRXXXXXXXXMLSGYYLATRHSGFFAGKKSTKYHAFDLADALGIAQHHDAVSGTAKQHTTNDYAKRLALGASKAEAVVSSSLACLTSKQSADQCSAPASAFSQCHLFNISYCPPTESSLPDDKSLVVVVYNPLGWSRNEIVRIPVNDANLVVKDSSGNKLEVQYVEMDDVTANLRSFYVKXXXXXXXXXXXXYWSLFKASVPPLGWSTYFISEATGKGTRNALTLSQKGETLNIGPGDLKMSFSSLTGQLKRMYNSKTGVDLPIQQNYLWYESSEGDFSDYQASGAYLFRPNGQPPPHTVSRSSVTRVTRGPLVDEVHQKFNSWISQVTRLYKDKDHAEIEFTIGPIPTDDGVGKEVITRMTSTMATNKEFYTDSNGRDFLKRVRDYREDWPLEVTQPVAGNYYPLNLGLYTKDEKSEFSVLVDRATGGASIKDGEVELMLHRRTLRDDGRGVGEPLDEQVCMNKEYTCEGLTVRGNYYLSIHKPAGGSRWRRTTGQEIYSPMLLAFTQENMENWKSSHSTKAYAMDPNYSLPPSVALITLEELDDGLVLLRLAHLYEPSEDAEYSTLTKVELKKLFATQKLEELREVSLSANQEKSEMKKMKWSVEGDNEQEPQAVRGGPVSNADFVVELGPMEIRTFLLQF
Experimental: Inhibition of the N-linked glycan trimming enzymes alpha-Glucosidases I and II or alpha-Mannosidases I and II are thought to be related to the anti-viral activity of castanospermine (Compound 104) and 1-deoxynojirimycin (Compound 193). […] All enzymes were purchased from Sigma, as were the appropriate p-nitrophenyl substrates. Assays were carried out in microtitre plates. Enzymes were assayed in 0.1M citric acid/0.2M di-sodium hydrogen phosphate (McIlvaine) buffers at the optimum pH for the enzyme. All assays were carried out at 20° C. For screening assays the incubation assay consisted of 10 μl of enzyme solution, 10 μl of inhibitor solution (made up in water at 5 mM) and 50 μl of the appropriate 5 mM p-nitrophenyl substrate (3.57 mM final conc.) made up in McIlvaine buffer at the optimum pH for the enzyme.
(§1) The reactions were stopped with 0.4M glycine (pH 10.4) during the exponential phase of the reaction, which was determined at the beginning of the assay using blanks with water, which were incubated for a range of time periods to measure the reaction rate using 5 mM substrate solution. Endpoint absorbances were read at 405 nm with a Bio-rad microtitre plate reader (Benchmark). Water was substituted for the inhibitors in the blanks.

[2] = molecular target: T2, α-L-fucosidase (Bos taurus, UniProt Q2KIM0); assay: Glycosidase inhibition: α-L-fucosidase; format: biochemical, Bovine kidney; conditions: 1 mg/ml; pH 5.5, 20° C
T2 construct: purchased Sigma; host or cells: bovine kidney
T2 sequence (Q2KIM0 23-468): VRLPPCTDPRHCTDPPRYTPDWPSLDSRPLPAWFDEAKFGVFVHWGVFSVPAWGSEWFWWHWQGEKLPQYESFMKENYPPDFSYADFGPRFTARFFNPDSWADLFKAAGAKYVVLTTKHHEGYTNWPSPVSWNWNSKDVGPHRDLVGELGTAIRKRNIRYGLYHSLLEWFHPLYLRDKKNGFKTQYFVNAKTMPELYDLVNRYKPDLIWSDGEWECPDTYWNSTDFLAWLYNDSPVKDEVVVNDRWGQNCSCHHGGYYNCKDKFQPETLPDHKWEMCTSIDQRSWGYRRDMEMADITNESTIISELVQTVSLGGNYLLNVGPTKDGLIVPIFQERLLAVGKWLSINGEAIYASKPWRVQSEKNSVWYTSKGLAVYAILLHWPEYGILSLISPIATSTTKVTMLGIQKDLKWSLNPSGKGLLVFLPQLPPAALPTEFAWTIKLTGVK
Experimental: All enzymes were purchased from Sigma, as were the appropriate p-nitrophenyl substrates. Assays were carried out in microtitre plates. Enzymes were assayed in 0.1M citric acid/0.2M di-sodium hydrogen phosphate (McIlvaine) buffers at the optimum pH for the enzyme. All assays were carried out at 20° C. For screening assays the incubation assay consisted of 10 μl of enzyme solution, 10 μl of inhibitor solution (made up in water at 5 mM) and 50 μl of the appropriate 5 mM p-nitrophenyl substrate (3.57 mM final conc.) made up in McIlvaine buffer at the optimum pH for the enzyme.
as §1

SMILES | inhibition at 1000 µg/mL [1] | inhibition at 1000 µg/mL [2]
CC[C@@H]1N[C@@H](CO)[C@H](O)[C@@H](O)[C@@H]1O [Compound 23, (2S,3R,4S,5S,6S)-2-ethyl-6-(hydroxymethyl)piperidine-3,4,5-triol] | 0% | 0%
CC[C@@H](O)[C@H]1N[C@H](CO)[C@@H](O)[C@@H]1O [Compound 62, (2R,3R,4R,5R)-2-(hydroxymethyl)-5-((R)-1-hydroxypropyl)pyrrolidine-3,4-diol] | 0% | 0%
CC(O)[C@H](O)[C@H]1N[C@H](CO)[C@@H](O)[C@@H]1O (stereo partly drawn) [Compound 63, (2R,3R,4R,5R)-2-((1R)-1,2-dihydroxypropyl)-5-(hydroxymethyl)pyrrolidine-3,4-diol] | 0% | 0%
O[C@H]1[C@H](O)[C@@H](O)CN2CC[C@H](O)[C@H]12 [Compound 104, Castanospermine, reference compound] | 0% | 0%
OC[C@@H]1NC[C@H](O)[C@@H]1O [Compound 167, (2S,3R,4S)-2-(hydroxymethyl)pyrrolidine-3,4-diol] | 0% | 28%
